# According to patent US9499550B2 (BRISTOL-MYERS SQUIBB COMPANY, priority 2012, dated 2016):
# Like-named read-outs stand apart in the source and are kept apart here.
# Assays:
# [1] = tested on: HCV genotype 1b (Con1) replicon in HUH-7 cells; experiment: HCV replicon luciferase reporter assay, genotype 1b; format: cell-based; conditions: Hepatitis C virus, Huh-7, 72 h, 3 days incubation
# Method in brief: (§1)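 Replicon inhibition for both genotypes was measured as Renilla luciferase signal (EnduRen, 7.5 μM final, 2 h) after 3-day, 37° C exposure of replicon-bearing HUH-7 cells in 4% FCS DMEM, 0.5% DMSO. The 1b construct carries S1179I; the 1a H77 construct carries P1496L and S2204I. Twenty-point, 3-fold dilutions were fitted four-parametrically for EC50, and CC50 was taken from multiplexed Cell Titer-Blue.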
# [2] = tested on: HCV genotype 1a (H77 strain) replicon in HUH-7 cells; experiment: HCV replicon luciferase reporter assay, genotype 1a; format: cell-based; conditions: Hepatitis C virus, Huh-7, 72 h, 3 days incubation
# Method in brief: as §1
# [3] = HCV genotype 1b replicon luciferase assay, range class, read-out: LE_1b (EC50, range)
# [4] = HCV genotype 1a replicon luciferase assay, range class, read-out: LE_1a (EC50, range)
# [5] = HCV genotype 1b replicon luciferase, read-out: LE_1b (EC50, range)
# [6] = HCV genotype 1a replicon luciferase, read-out: LE_1a (EC50, range)
SMILES,"EC50 [1, 3] [nM]","EC50 [2, 4] [nM]","EC50 ([1]; HCV genotype 1b replicon luciferase assay, read-out: LE_1b (EC50)) [nM]","EC50 ([2]; HCV genotype 1a replicon luciferase assay, read-out: LE_1a (EC50)) [nM]","EC50 [1, 5] [nM]","EC50 [2, 6] [nM]"
"COc1cc(F)cc2c(O[C@@H]3C[C@H]4C(=O)N[C@]5(C(=O)NS(=O)(=O)C6(CF)CC6)C[C@H]5/C=C\CC[C@@H](C)C[C@@H](C)[C@H](NC(=O)OC(C)(C)C(C)(F)F)C(=O)N4C3)nccc12 [Compound 3180, 3,3-difluoro-2-methylbutan-2-yl((2R,6S,7R,9R,13aS,14aR,16aS,Z)-2-((7-fluoro-5-methoxyisoquinolin-1-yl)oxy)-14a-(((1-(fluoromethyl)cyclopropyl)sulfonyl)carbamoyl)-7,9-dimethyl-5,16-dioxo-1,2,3,5,6,7,8,9,10,11,13a,14,14a,15,16,16a-hexadecahydrocyclopropa[e]pyrrolo[1,2-a][1,4]diazacyclopentadecin-6-yl)carbamate]",< 5.46,< 5.46,,,,
"COc1cc2cc(-c3ccc(OC(C)C)cc3)nc(O[C@@H]3C[C@H]4C(=O)N[C@]5(C(=O)NS(=O)(=O)C6CC6)C[C@H]5/C=C\CC[C@H](C)C[C@@H](C)[C@H](NC(=O)OC(C)(C)C)C(=O)N4C3)c2cc1F [Compound 3181, tert-butyl ((2R,6S,7R,9S,13aS,14aR,16aS,Z)-14a-((cyclopropylsulfonyl)carbamoyl)-2-((7-fluoro-3-(4-isopropoxyphenyl)-6-methoxyisoquinolin-1-yl)oxy)-7,9-dimethyl-5,16-dioxo-1,2,3,5,6,7,8,9,10,11,13a,14,14a,15,16,16a-hexadecahydrocyclopropa[e]pyrrolo[1,2-a][1,4]diazacyclopentadecin-6-yl)carbamate]",< 5.46,4.82 to 103,,,,
"COc1cc2cc(-c3ccc(OC(C)C)cc3)nc(O[C@@H]3C[C@H]4C(=O)N[C@]5(C(=O)NS(=O)(=O)C6CC6)C[C@H]5/C=C\CC[C@@H](C)C[C@@H](C)[C@H](NC(=O)OC(C)(C)C)C(=O)N4C3)c2cc1F [Compound 3182, tert-butyl ((2R,6S,7R,9R,13aS,14aR,16aS,Z)-14a-((cyclopropylsulfonyl)carbamoyl)-2-((7-fluoro-3-(4-isopropoxyphenyl)-6-methoxyisoquinolin-1-yl)oxy)-7,9-dimethyl-5,16-dioxo-1,2,3,5,6,7,8,9,10,11,13a,14,14a,15,16,16a-hexadecahydrocyclopropa[e]pyrrolo[1,2-a][1,4]diazacyclopentadecin-6-yl)carbamate]",< 5.46,< 5.46,,,,
"COc1cc2cc(-c3ccc(OC(C)C)cc3)nc(O[C@@H]3C[C@H]4C(=O)N[C@]5(C(=O)NS(=O)(=O)C6(C)CC6)C[C@H]5/C=C\CC[C@H](C)C[C@@H](C)[C@H](NC(=O)OC(C)(C)C)C(=O)N4C3)c2cc1F [Compound 3183, tert-butyl ((2R,6S,7R,9S,13aS,14aR,16aS,Z)-2-((7-fluoro-3-(4-isopropoxyphenyl)-6-methoxyisoquinolin-1-yl)oxy)-7,9-dimethyl-14a-(((1-methylcyclopropyl)sulfonyl)carbamoyl)-5,16-dioxo-1,2,3,5,6,7,8,9,10,11,13a,14,14a,15,16,16a-hexadecahydrocyclopropa[e]pyrrolo[1,2-a][1,4]diazacyclopentadecin-6-yl)carbamate]",< 5.46,4.82 to 103,,,,
"COc1cc2cc(-c3ccc(OC(C)C)cc3)nc(O[C@@H]3C[C@H]4C(=O)N[C@]5(C(=O)NS(=O)(=O)C6(C)CC6)C[C@H]5/C=C\CC[C@@H](C)C[C@@H](C)[C@H](NC(=O)OC(C)(C)C)C(=O)N4C3)c2cc1F [Compound 3184, tert-butyl ((2R,6S,7R,9R,13aS,14aR,16aS,Z)-2-((7-fluoro-3-(4-isopropoxyphenyl)-6-methoxyisoquinolin-1-yl)oxy)-7,9-dimethyl-14a-(((1-methylcyclopropyl)sulfonyl)carbamoyl)-5,16-dioxo-1,2,3,5,6,7,8,9,10,11,13a,14,14a,15,16,16a-hexadecahydrocyclopropa[e]pyrrolo[1,2-a][1,4]diazacyclopentadecin-6-yl)carbamate]",< 5.46,< 5.46,1.26,2.78,,
"COc1cc2cc(-c3ccc(OC(C)C)cc3)nc(O[C@@H]3C[C@H]4C(=O)N[C@]5(C(=O)NS(=O)(=O)C6(C)CC6)C[C@H]5/C=C\CC[C@H](C)C[C@@H](C)[C@H](NC(=O)OC(C)(C)C(F)(F)F)C(=O)N4C3)c2cc1F [Compound 3185, 1,1,1-trifluoro-2-methylpropan-2-yl((2R,6S,7R,9S,13aS,14aR,16aS,Z)-2-((7-fluoro-3-(4-isopropoxyphenyl)-6-methoxyisoquinolin-1-yl)oxy)-7,9-dimethyl-14a-(((1-methylcyclopropyl)sulfonyl)carbamoyl)-5,16-dioxo-1,2,3,5,6,7,8,9,10,11,13a,14,14a,15,16,16a-hexadecahydrocyclopropa[e]pyrrolo[1,2-a][1,4]diazacyclopentadecin-6-yl)carbamate]",,,,,4.82 to 103,4.82 to 103
"COc1cc2cc(-c3ccc(OC(C)C)cc3)nc(O[C@@H]3C[C@H]4C(=O)N[C@]5(C(=O)NS(=O)(=O)C6(C)CC6)C[C@H]5/C=C\CC[C@@H](C)C[C@@H](C)[C@H](NC(=O)OC(C)(C)C(F)(F)F)C(=O)N4C3)c2cc1F [Compound 3186, 1,1,1-trifluoro-2-methylpropan-2-yl((2R,6S,7R,9R,13aS,14aR,16aS,Z)-2-((7-fluoro-3-(4-isopropoxyphenyl)-6-methoxyisoquinolin-1-yl)oxy)-7,9-dimethyl-14a-(((1-methylcyclopropyl)sulfonyl)carbamoyl)-5,16-dioxo-1,2,3,5,6,7,8,9,10,11,13a,14,14a,15,16,16a-hexadecahydrocyclopropa[e]pyrrolo[1,2-a][1,4]diazacyclopentadecin-6-yl)carbamate]",,,,,< 5.46,< 5.46
"COc1cc2cc(-c3ccc(OC(C)C)cc3)nc(O[C@@H]3C[C@H]4C(=O)N[C@]5(C(=O)NS(=O)(=O)C6CC6)C[C@H]5/C=C\CC[C@H](C)C[C@@H](C)[C@H](NC(=O)O[C@@H]5C[C@@H]6C[C@@H]6C5)C(=O)N4C3)c2cc1F [Compound 3187, (1R,3r,5S)-bicyclo[3.1.0]hexan-3-yl((2R,6S,7R,9S,13aS,14aR,16aS,Z)-14a-((cyclopropylsulfonyl)carbamoyl)-2-((7-fluoro-3-(4-isopropoxyphenyl)-6-methoxyisoquinolin-1-yl)oxy)-7,9-dimethyl-5,16-dioxo-1,2,3,5,6,7,8,9,10,11,13a,14,14a,15,16,16a-hexadecahydrocyclopropa[e]pyrrolo[1,2-a][1,4]diazacyclopentadecin-6-yl)carbamate]",,,,,< 5.46,< 5.46
"COc1cc2cc(-c3ccc(OC(C)C)cc3)nc(O[C@@H]3C[C@H]4C(=O)N[C@]5(C(=O)NS(=O)(=O)C6CC6)C[C@H]5/C=C\CC[C@@H](C)C[C@@H](C)[C@H](NC(=O)O[C@@H]5C[C@@H]6C[C@@H]6C5)C(=O)N4C3)c2cc1F [Compound 3188, (1R,3r,5S)-bicyclo[3.1.0]hexan-3-yl((2R,6S,7R,9R,13aS,14aR,16aS,Z)-14a-((cyclopropylsulfonyl)carbamoyl)-2-((7-fluoro-3-(4-isopropoxyphenyl)-6-methoxyisoquinolin-1-yl)oxy)-7,9-dimethyl-5,16-dioxo-1,2,3,5,6,7,8,9,10,11,13a,14,14a,15,16,16a-hexadecahydrocyclopropa[e]pyrrolo[1,2-a][1,4]diazacyclopentadecin-6-yl)carbamate]",,,,,< 5.46,< 5.46
"COc1cc2cc(-c3ccc(OC(C)C)cc3)nc(O[C@@H]3C[C@H]4C(=O)N[C@]5(C(=O)NS(=O)(=O)C6CC6)C[C@H]5/C=C\CC[C@H](C)C[C@@H](C)[C@H](NC(=O)OC(C)(C)C(F)(F)F)C(=O)N4C3)c2cc1F [Compound 3189, 1,1,1-trifluoro-2-methylpropan-2-yl((2R,6S,7R,9S,13aS,14aR,16aS,Z)-14a-((cyclopropylsulfonyl)carbamoyl)-2-((7-fluoro-3-(4-isopropoxyphenyl)-6-methoxyisoquinolin-1-yl)oxy)-7,9-dimethyl-5,16-dioxo-1,2,3,5,6,7,8,9,10,11,13a,14,14a,15,16,16a-hexadecahydrocyclopropa[e]pyrrolo[1,2-a][1,4]diazacyclopentadecin-6-yl)carbamate]",,,,,< 5.46,4.82 to 103
"COc1cc2cc(-c3ccc(OC(C)C)cc3)nc(O[C@@H]3C[C@H]4C(=O)N[C@]5(C(=O)NS(=O)(=O)C6CC6)C[C@H]5/C=C\CC[C@@H](C)C[C@@H](C)[C@H](NC(=O)OC(C)(C)C(F)(F)F)C(=O)N4C3)c2cc1F [Compound 3190, 1,1,1-trifluoro-2-methylpropan-2-yl((2R,6S,7R,9R,13aS,14aR,16aS,Z)-14a-((cyclopropylsulfonyl)carbamoyl)-2-((7-fluoro-3-(4-isopropoxyphenyl)-6-methoxyisoquinolin-1-yl)oxy)-7,9-dimethyl-5,16-dioxo-1,2,3,5,6,7,8,9,10,11,13a,14,14a,15,16,16a-hexadecahydrocyclopropa[e]pyrrolo[1,2-a][1,4]diazacyclopentadecin-6-yl)carbamate]",,,,,< 5.46,< 5.46
